Results reported in patent US20070173539A1, “Use of malonomicin and analogs in fungicidal applications” (priority 2006, published 2007).
Read-outs that look alike come from different tables or passages of the source.

Experiments:
Assay type in all cases: in vivo
[1] = system: Puccinia recondita f. sp. tritici (PUCCRT); assay: Brown Rust of Wheat one day protectant (1DP); details: wheat (Monon), sprayed to runoff, rate 200 ppm
Description: Final treatment volumes were obtained by adding 0.1 percent aqueous Ethomeen T25 or 0.1 percent aqueous Spraymate X77+0.1 percent wt./vol. ammonium sulfate^+. Brown Rust of Wheat (Puccinia recondita f. sp. tritici-PUCCRT) (1 DP) Wheat (cultivar Monon) was grown in plastic pots (6.2 cm×8.75 cm) containing 50 percent mineral soil, 50 percent Metro-Mix 360 (W.R Grace and Co.) until the seedlings were 10-20 cm tall. These plants were then sprayed to runoff with the test compound at a rate of 200 ppm. After 24 hours the test plants were inoculated by spraying with an aqueous spore suspension of Puccinia recondita f. sp. tritici (PUCCRT). The plants were then transferred to a dew chamber for 24 hours, then to the greenhouse until disease developed on the untreated control plants.

[2] = system: Erysiphe graminis f. sp. tritici (ERYSGT); assay: Powdery Mildew of Wheat one day protectant (1DP); details: wheat (Monon), sprayed to runoff, rate 200 ppm
Description: Final treatment volumes were obtained by adding 0.1 percent aqueous Ethomeen T25 or 0.1 percent aqueous Spraymate X77+0.1 percent wt./vol. ammonium sulfate^+. Powdery Mildew of Wheat (Erysiphe graminis f. sp. tritici-[…]) Wheat (cultivar Monon) was grown in plastic pots (6.2 cm×8.75 cm) containing 50 percent mineral soil, 50 percent Metro-Mix 360 (W.R Grace and Co.) until the seedlings were 10-20 cm tall. These plants were then sprayed to runoff with the test compound at a rate of 200 ppm. After 24 hours the test plants were inoculated with Erysiphe graminis f. sp. tritici ([…]) by dusting spores from stock plants onto the test plants. The plants were then transferred to the greenhouse until disease developed on the untreated control plants.

[3] = system: Phytophthora infestans PHYTIN; details: curative 1 day, low volume 300 L/ha, tomato

Structure (SMILES): NC[C@@H]1NC(=O)C(C(=O)CC(NC(=O)[C@@H](N)CO)(C(=O)O)C(=O)O)=C1O [Compound I, {[(2S)-2-amino-3-hydroxypropanoyl]amino}{2-[(5S)-5-(aminomethyl)-4-hydroxy-2-oxo-2,5-dihydro-1H-pyrrol-3-yl]-2-oxoethyl}malonic acid]
- PUCCRT percent control of plant disease [1]: ++ (++ = 75-100 percent control of plant disease)
- ERYSGT percent control of plant disease [2]: − (− = 0-29 percent control of plant disease)
- PHYTIN 1DC percent disease control ([3]; 7.8 g ai/ha): − (− = 0-29 percent control of plant disease)
- PHYTIN 1DC percent disease control ([3]; 15.6 g ai/ha): + (+ = 30-74 percent control of plant disease)
- PHYTIN 1DC percent disease control ([3]; 31.2 g ai/ha): + (+ = 30-74 percent control of plant disease)
- PHYTIN 1DC percent disease control ([3]; 62.5 g ai/ha): − (− = 0-29 percent control of plant disease)
- PHYTIN 1DC percent disease control ([3]; 125 g ai/ha): + (+ = 30-74 percent control of plant disease)
- PHYTIN 1DC percent disease control ([3]; 250 g ai/ha): ++ (++ = 75-100 percent control)
